These results are taken from article PMC6458983 (Cancer Chemotherapy and Pharmacology, 2019).

This series can be described thus: Population pharmacokinetic analysis of gefitinib plasma concentrations (NONMEM, one-compartment model). Format: in vivo, Japanese patients with NSCLC. How it is done: Six blood samples were taken from each patient at 1–3, 3–8, and 24 h after first treatment dosing (Day 1) and at steady state (Days 10–15). In addition, blood samples were taken from each patient with ILD, if possible, when ILD developed. […] In total, data for 1891 plasma concentrations taken from 336 patients were used for population pharmacokinetic modeling.
When estimating the exposure at first dosing and at steady state, time-dependent pharmacokinetics were not assumed. Thus, both exposures at first dosing and steady state can be theoretically derived if at least one plasma concentration at either first dosing or steady state is available. Individual exposures were predicted based on patients’ dosing history, assuming steady state at 144 h after the first dosing. […] Serum concentration of AGP were likewise determined at first dosing and at steady state.
The population pharmacokinetic analysis was performed using the non-linear mixed-effect modeling (NONMEM) program version V level 1.1 with the PREDPP library and the NM-TRAN pre-processor (GloboMax LLC, Hanover, MD, USA). Full details of the population pharmacokinetic model development and analysis are described in the Online Resource.
The population pharmacokinetic analysis was performed using the NONMEM program version V level 1.1 with the PREDPP library and the NM-TRAN pre-processor (GloboMax LLC, Hanover, MD).
Following preliminary modeling to build a base model, log-transformed plasma concentrations were used for the analysis, and a one-compartment model after first-order absorption with lag-time was selected as the structural model. The first-order method was adopted as an approximation in integral of marginal likelihood. The inter-individual variability on pharmacokinetic parameters was described using an exponential error model, and the intra-individual variability on log-transformed plasma concentration was described using an additive error model.
The covariate model was developed based on the forward addition method and the backward deletion method. Continuous covariates such as body weight, age, sex, α1-acid glycoprotein (AGP), serum albumin, total protein, aspartate aminotransferase, alanine aminotransferase, alkaline phosphatase, total bilirubin, and creatinine clearance were tested using a power model centered on the mean value.
Categorical covariates included were age group (<65 years or ≥65 years), concomitant use of cytochrome P450 3A4 (CYP3A4) inducers, concomitant use of CYP3A4 inhibitors, and concomitant use of proton pump inhibitors and/or H2 antagonists. In addition, interstitial lung disease (ILD) status (i.e. “patients with ILD” vs “patients without ILD”) and ILD period (i.e. “at times other than ILD development” vs “at the time of ILD development”) were tested using a productive multiplicative model with the discrete variable (0 or 1).
χ^2 tests with one degree of freedom based on the objective function value (OFV) in NONMEM, which corresponds to -2-fold of log-likelihood, were used for developing the covariate model, and the adopted statistically significant levels were p=0.05 (ΔOFV=3.84) and p=0.001 (ΔOFV=10.83) when a covariate was included and excluded from the pharmacokinetic model, respectively.
Goodness-of-fit plots were used for diagnosis of the final model. The robustness of the final model was evaluated by a randomized non-stratified bootstrap technique with 200 resampling datasets, and model predictability was examined by visual predictive check.

As for `COc1cc2ncnc(Nc3ccc(F)c(Cl)c3)c2cc1OCCCN1CCOCC1` [gefitinib], the “decrease of CL/F” value (at the time of ILD development, population pharmacokinetic analysis) is 25.7%. This compound also showed a θ3 (base in CL/F equation (AGE ≥ 65 term, CL/F declined in elderly)) of 0.759. Also, the θ6 (base in CL/F equation (PERI, at the time of ILD diagnosis)) turned out to be 0.743. In addition, the θ5 (exponent in CL/F equation (body weight term)) is given as 0.503. Moreover, the θ1 (typical value term of the CL/F equation (equation is drawing C00001), population estimate) is 28.6. For the same compound, the θ7 (typical value term of the V/F equation (equation is drawing C00002), population estimate) is listed as 1540.
